Patent US20050043273A1, “Compositions and methods for inhibiting slit protein and glypican interactions” (priority 2003, published 2005)

Experiments:
[1] = system: glypican-1-Fc binding to human full-length Slit-2; experiment: ELISA: inhibition of glypican-1-Fc binding to Slit-2
Experimental: Human embryonic kidney 293 cells were transfected with a glypican-1-Fc fusion protein construct using Lipofectamine 2000 and grown in serum-free DMEM containing 1% ITS+. To separate the glycanated form of the proteoglycan (which was used for all studies) from unglycanated core protein, the conditioned medium was applied to a 0.9×8 cm column of DEAE-Sephacel equilibrated with 150 mM NaCl, 50 mM Tris-HCl, pH 8.0. After elution with 50 mM Tris-HCl (pH 8.0) containing 0.6 M NaCl, the glycanated glypican-1-Fc was bound to protein A-Sepharose beads, eluted with 0.1 M glycine, pH 3.0, and immediately neutralized with 1 M Tris, pH 8.0, for storage at −80° C.
293 cells were transfected with the pSecTagB vector (Invitrogen, Carlsbad, Calif.) containing cDNA for the His-tagged uncleavable variant of human full-length Slit-2, in which the nine amino acids encompassing the proteolytic processing site were deleted, producing an uncleavable full-length protein. 1 M NaCl extracts of the 293 cells were incubated with nickel-agarose beads (Qiagen) for 2 hours at 4° C., and after washing, bound protein was eluted with 10 mM Hepes (pH 7.5) containing 250 mM imidazole and 1 M NaCl. Protein concentrations were determined by the Bradford assay. Purity of the recombinant Slit protein was confirmed by SDS-PAGE followed by silver staining.
96-well plates (Corning Costar #9018) were coated overnight with the human full-length Slit-2 in imadazole/NaCl elution buffer at a saturating concentration of 1-5 μg/well, after dilution in PBS. Unbound protein was removed by washing with TBST (10 mM Tris-HCl, pH 7.4, 150 mM NaCl, 0.1% Tween 20), the wells were blocked with 10% FBS in TBST for 2 hours, and then incubated for 18 hours at room temperature with glypican-1-Fc (1 μg/well) in 5 mM PBS (pH 7.2), or in PBS containing varying concentrations of potential inhibitory compositions. Bound glypican was detected using a biotinylated anti-human Fc antibody (Jackson Immunoresearch; 1:250,000 in TBST, for 2 hours), followed by incubation for 20 minutes with HRP-conjugated streptavidin (1:20,000 in TBST). The colorimetric reaction product from the o-phenylenediamine substrate was measured at 450 nm using a Dynatech MRX ELISA plate reader. Nonspecific binding was calculated as the binding of glypican-1-Fc to wells coated with BSA (2 mg/ml solution). Percent inhibition was calculated in relation to parallel assay wells in which no inhibitor was added to the glypican-1 solution. From serial dilutions of a known concentration of glypican-1-Fc directly coated on the wells and the corresponding immunoreactivity absorbance, a standard curve could also be created and used to quantitate the absolute amount of glypican-1-Fc bound.
The glypican-1-Fc and human Slit-2 fusion proteins are prepared as set forth in Example One.

[2] = system: vascular endothelial cells; settings: cited from earlier work
whole blood = settings: cited from earlier work

% inhibition of glypican-1 binding to Slit ([1]; 50 μM)	% inhibition of glypican-1 binding to Slit ([1]; 1 μM) [%]	% inhibition of glypican-1 binding to Slit ([1]; 5 μM) [%]	Compound	inhibition of glypican binding to Slit proteins (in words) ([1]; ELISA, function of oligosaccharide size, FIG. 1)	antithrombotic activity [2]	anticoagulant activity (whole blood)
–	–	–	Cc1ccc(C(=O)Nc2ccc(S(=O)(=O)O)c3cc(S(=O)(=O)O)cc(S(=O)(=O)O)c23)cc1NC(=O)c1cccc(NC(=O)Nc2cccc(C(=O)Nc3cc(C(=O)Nc4ccc(S(=O)(=O)O)c5cc(S(=O)(=O)O)cc(S(=O)(=O)O)c45)ccc3C)c2)c1 [suramin]	inhibits glypican-Slit interactions to the same extent as large heparin oligosaccharides	–	–
no effect	–	–	CO[C@H]1O[C@H](COS(=O)(=O)O)[C@@H](O[C@@H]2O[C@@H](C(=O)O)[C@@H](O[C@H]3O[C@H](COS(=O)(=O)O)[C@@H](O[C@@H]4O[C@H](C(=O)O)[C@@H](O[C@H]5O[C@H](COS(=O)(=O)O)[C@@H](O)[C@H](O)[C@H]5NS(=O)(=O)O)[C@H](O)[C@H]4O)[C@H](OS(=O)(=O)O)[C@H]3NS(=O)(=O)O)[C@H](O)[C@H]2OS(=O)(=O)O)[C@H](O)[C@H]1NS(=O)(=O)O [Arixtra]	–	–	–
67%	58	61	O=S(=O)(O)c1cc2c(O)c(c1)Cc1cc(S(=O)(=O)O)cc(c1O)Cc1cc(S(=O)(=O)O)cc(c1O)Cc1cc(S(=O)(=O)O)cc(c1O)Cc1cc(S(=O)(=O)O)cc(c1O)Cc1cc(S(=O)(=O)O)cc(c1O)Cc1cc(S(=O)(=O)O)cc(c1O)Cc1cc(S(=O)(=O)O)cc(c1O)C2 [GL-522-Y-1]	–	heparin-like antithrombotic activity	no significant anticoagulant activity
